# Assays:
# P. haemolytica = test: Bacteria separation test from nasal cavity swab; assay type: in vivo, cattle
# P. multocida = test: Bacteria separation test from nasal cavity swab; assay type: in vivo, cattle
# Ureaplasma = test: Bacteria separation test from nasal cavity swab; assay type: in vivo, cattle
# Proteus vulgaris OX19 = test: Minimum inhibition concentration (MIC), agar double dilution method; assay type: cell-based; conditions: Mueller hinton agar, read-out: MIC
# In short: (§1)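 Lowest inhibitory concentration is reported, from double-dilution plates of Mueller Hinton agar run to the Japan Society of Chemotherapy method.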
# [1] = system: Enterobacter aerogenes ATCC13048; test: as above; assay type: cell-based; conditions: Klebsiella aerogenes, Mueller hinton agar, read-out: MIC
# In short: as §1
# M. bovirhinis = test: Bacteria separation test from nasal cavity swab; assay type: in vivo, cattle
# ICR mice = test: Toxicity test, intravenous or subcutaneous injection; assay type: in vivo; conditions: intravenous injection
# [2] = before administration (baseline)
compound,measurement,setting,value
"CC[C@H]1OC(=O)C[C@@H](O)[C@H](C)[C@@H](O[C@@H]2O[C@H](C)C(O)C(N(C)C)C2O)[C@@H](CCN2CC(C)CC(C)C2)C[C@@H](C)C(=O)/C=C/C(C)=C/[C@@H]1CO[C@@H]1OC(C)C(O)[C@@H](OC)C1OC (stereo partly shown) [Tilmicosin, tilmicosin]",Separation rate (%) at completion (number of animal),P. haemolytica; at completion,20 (1/5) % (number of animal)
same,Separation rate (%) before administration (number of animal),P. haemolytica; [2],20 (1/5) % (number of animal)
same,Separation rate (%) at completion (number of animal),P. multocida; at completion,80 (4/5) % (number of animal)
same,Separation rate (%) before administration (number of animal),P. multocida; [2],100 (5/5) % (number of animal)
same,Separation rate (%) at completion (number of animal),Ureaplasma; at completion,60 (3/5) % (number of animal)
same,Separation rate (%) before administration (number of animal),Ureaplasma; [2],100 (5/5) % (number of animal)
same,MIC,Proteus vulgaris OX19,100 µg/mL
same,MIC,[1],100 µg/mL
same,Separation rate (%) at completion (number of animal),M. bovirhinis; at completion,60 (3/5) % (number of animal)
same,Separation rate (%) before administration (number of animal),M. bovirhinis; [2],60 (3/5) % (number of animal)
same,Dissection finding,ICR mice; 0.5 mg/mouse,immediate death
same,Dissection finding,ICR mice; 1.0 mg/mouse,immediate death
same,Dissection finding,ICR mice; 2.0 mg/mouse,immediate death

# From US6514946B1, “Macrolide antibiotics and treatment and prophylaxis of pasteurellosis using the same” (Zaidan Hojin Biseibutsu Kagaku Kenkyu Kai, priority 1999, dated 2003)
